ChEMBL document CHEMBL5107975, “HIV nucleoside reverse transcriptase inhibitors” (Eur J Med Chem, 2022)

Experiments:
[1] = Drug elimination in human urine assessed as unchanged drug administered po relative to control; assay type: ADME, organism-based; settings: read-out: Drug excretion
[2] = test system: Human immunodeficiency virus 1; experiment: Antiviral activity against HIV-1; assay type: functional, organism-based
[3] = Elimination half life in human administered po; assay type: ADME; settings: read-out: LambdaZ (converted)
[4] = Oral bioavailability in human relative to control; assay type: ADME, organism-based; settings: in vivo

Row | dose excreted [1] | EC50 [2] | half-life [3] | bioavailability [4] | Compound
1 | 62% | > 1000 nM | 128 h | 100% | C=C1[C@H](CO)[C@@H](O)C[C@@H]1n1cnc2c(=O)[nH]c(N)nc21.O [ENTECAVIR]
2 |  | 2 nM |  |  | Nc1ccn([C@@H]2CS[C@H](CO)O2)c(=O)n1 [LAMIVUDINE]
